According to the NIST ThermoML archive (doi:10.1016/j.jct.2011.10.002):
± gives the expanded uncertainty stated by the source.

Conditions: 298.15 K, 101.33 kPa, Liquid; for speed of sound: Sing-around technique in a fixed-path interferometer; for mass density: Vibrating tube method

speed of sound [m/s]	mass density [kg/m3]	Compound
1380.1 ± 2.1	939.802 ± 0.77	Cc1ccccn1 [2-methylpyridine]
1424 ± 1.2	952.002 ± 0.23	Cc1cccnc1 [3-methylpyridine]
1431.5 ± 1.2	950.179 ± 0.23	Cc1ccncc1 [4-methylpyridine]
1269.9 ± 2.1	879.136 ± 0.7	C1CCOCC1 [tetrahydropyran]

Compound	speed of sound [m/s]	mass density [kg/m3]
Cc1ccccc1N [2-methylaniline]	1602.6 ± 1.3	994.351 ± 0.23
